# Test results: patent publication US11541130B2, “Systems and methods for nucleic acid expression in vivo” (DNARx, priority 2017, dated 2023)
# B1: Neupogen: recombinant human G-CSF protein (protein, UniProt P09919 31-207, looked up)
# Granulocyte …: TPLGPASSLPQSFLLKCLEQVRKIQGDGAALQEKLVSECATYKLCHPEELVLLGHSLGIPWAPLSSCPSQALQLAGCLSQLHSGLFLYQGLLQALEGISPELGPTLDTLQLDVADFATTIWQQMEELGMAPALQPTQGAMPAFASAFQRRAGGVLVASHLQSFLEVSYRVLRHLAQP
# modifications: filgrastim
# notes: recombinant human G-CSF protein
# How the values were obtained:
# [1] = assay type: in vivo; conditions: mice
# [2] = in vivo; cited from earlier work
molecule,measurement,setting,value
Rituximab: anti-CD20 monoclonal antibody expressed in mice from plasmid vector containing Rituximab cDNA,Duration of serum anti-CD20 mAb (Rituximab) expression,"[1]; after a single sequential IV injection, 1050 nmol DOTAP 2.5% DP, 75 ug plasmid",over 275 days
dexamethasone palmitate,"Serum anti-CD20 mAb (Rituximab) level, in words",[1]; ELISA 24 hrs after sequential injection (Example 18: also over time),further increases gene expression in vivo
B1,Time for serum HG-CSF levels to return to baseline after each daily dose,[2],approximately 14 hours
